Measurements: ChEMBL document CHEMBL1201862, “PubChem BioAssay data set” (2004)
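Dose response: 5 concentrations. Exposure: 48 h. Format: 96-well plates. Endpoint: linear interpolation; highest concentration if not reached. GI50 = concentration required for 50% inhibition of growth.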 The source made the active and inactive calls. Cut-off read from the data, not from the text of the source: active = GI50 up to about 1.1 µM and inactive = higher.

Tests used:
Assay in all cases: NCI-60 cell line screen, 48 h
[1] = system: LOX IMVI
[2] = system: MCF7
[3] = system: UO-31
[4] = system: DU-145
[5] = system: HCC 2998
[6] = system: CAKI-1
[7] = system: U-251
[8] = system: MDA-MB-231
[9] = system: CCRF-CEM
[10] = system: UACC-257
[11] = system: SW-620
[12] = system: SF-268
[13] = system: MDA-MB-435
[14] = system: IGROV-1
[15] = system: T47D
[16] = system: 786-0
[17] = system: NCI/ADR-RES
[18] = system: UACC-62
[19] = system: OVCAR-5
[20] = system: A549

Measured: GI50

CCOC(=O)C1=C(Nc2cccc(OC)c2)OCC1=O
inactive: [1] > 100 µM | [2] > 100 µM | [3] > 100 µM | [4] 68.7 µM | [5] > 100 µM | [6] > 100 µM | [7] > 100 µM | [8] > 100 µM | [9] > 100 µM | [10] > 100 µM | [11] > 100 µM | [12] > 100 µM | [13] > 100 µM | [14] > 100 µM | [15] > 100 µM | [16] > 100 µM | [17] > 100 µM | [18] > 100 µM

COc1ccccc1N/C(=C\C(=O)C(=O)NC12CC3CC(CC(C3)C1)C2)c1ccccc1
inactive: [1] > 10 µM | [2] > 10 µM | [3] 7.73 µM | [4] > 10 µM | [5] > 10 µM | [6] > 10 µM | [7] > 10 µM | [8] > 10 µM | [9] > 10 µM | [10] 9.46 µM | [11] > 10 µM | [12] > 10 µM | [13] 7.21 µM | [14] > 10 µM | [15] > 10 µM | [16] > 10 µM | [17] > 10 µM | [19] > 10 µM

Cc1ccc(NC(=S)C#N)cc1Cl
inactive: [1] 42.3 µM | [2] 56.2 µM | [4] 68.9 µM | [5] 24.3 µM | [6] 41.3 µM | [7] 55.8 µM | [8] 88.3 µM | [9] 25.5 µM | [10] 46.3 µM | [11] 48.8 µM | [20] 23.8 µM | [12] 36.9 µM | [13] 41.8 µM | [14] 17.1 µM | [15] 32.4 µM | [16] 45.2 µM | [17] 31 µM | [19] 24.8 µM | [18] 37.9 µM

C=C1CC[C@H]2C(C)=CC[C@H]3C(=C)C(=O)O[C@@H]3[C@@H]12 [EREMANTHIN]
inactive: [1] > 100 µM | [2] > 100 µM | [3] > 100 µM | [4] > 100 µM | [5] > 100 µM | [6] > 100 µM | [7] > 100 µM | [8] > 100 µM | [9] > 100 µM | [10] > 100 µM | [11] > 100 µM | [20] > 100 µM | [13] > 100 µM | [14] > 100 µM | [15] > 100 µM | [16] > 100 µM | [17] > 100 µM | [19] > 100 µM | [18] > 100 µM

Cc1c2c(c(C)n1-c1ccccc1)C(=O)N(CCN1CCN(c3cccc(C(F)(F)F)c3)CC1)C2=O
inactive: [1] 37.1 µM | [2] 7.71 µM | [3] 48.6 µM | [4] > 100 µM | [5] 97.5 µM | [6] 84.7 µM | [7] 31.3 µM | [8] > 100 µM | [10] 7.67 µM | [20] 46.6 µM | [12] > 100 µM | [13] > 100 µM | [14] > 100 µM | [15] 4.29 µM | [16] 71.8 µM | [17] 59.4 µM | [19] > 100 µM | [18] > 100 µM

OCC1CCCC(n2cnc3c(S)ncnc32)O1 (stereo not drawn)
inactive: [1] > 100 µM | [2] > 100 µM | [3] > 100 µM | [4] > 100 µM | [5] > 100 µM | [6] > 100 µM | [7] > 100 µM | [8] > 100 µM | [10] > 100 µM | [11] > 100 µM | [20] > 100 µM | [12] > 100 µM | [13] > 100 µM | [14] > 100 µM | [15] > 100 µM | [16] > 100 µM | [17] > 100 µM | [19] > 100 µM | [18] > 100 µM

O=[N+]([O-])C1CC/C(=N/O)c2nonc21 (stereo not drawn)
inactive: [2] > 10 µM | [3] > 10 µM | [4] > 10 µM | [5] > 10 µM | [6] > 10 µM | [7] > 10 µM | [8] > 10 µM | [9] > 10 µM | [10] > 10 µM | [11] > 10 µM | [20] > 10 µM | [12] > 10 µM | [13] > 10 µM | [14] > 10 µM | [15] > 10 µM | [16] > 10 µM | [17] > 10 µM | [19] > 10 µM | [18] > 10 µM

N#Cc1ccc2oc3ccc(C#N)cc3c(=O)c2c1
inactive: [2] 24.5 µM | [3] > 100 µM | [4] 30.8 µM | [5] 58.2 µM | [6] > 100 µM | [7] 17.1 µM | [8] > 100 µM | [9] 31.8 µM | [10] > 100 µM | [11] 51.5 µM | [20] 23 µM | [12] 35.9 µM | [13] 34.4 µM | [14] 32 µM | [15] > 100 µM | [16] 25.8 µM | [17] > 100 µM | [19] 19.7 µM | [18] 19 µM

O=C(NCC(O)COc1ccccc1)c1ccccc1O (stereo not drawn)
inactive: [1] > 100 µM | [2] > 100 µM | [3] 47.8 µM | [4] > 100 µM | [5] > 100 µM | [6] > 100 µM | [7] > 100 µM | [8] > 100 µM | [9] 40.5 µM | [10] > 100 µM | [11] > 100 µM | [20] > 100 µM | [13] > 100 µM | [14] > 100 µM | [15] 42.4 µM | [16] > 100 µM | [17] 58.6 µM | [19] > 100 µM | [18] 55 µM

CNc1ncnc2c1nc(NC1CCCC1)n2C1OC(CO)C(O)C1O (stereo not drawn)
inactive: [2] > 100 µM | [3] > 100 µM | [4] > 100 µM | [5] > 100 µM | [6] > 100 µM | [7] > 100 µM | [8] > 100 µM | [11] > 100 µM | [20] > 100 µM | [12] > 100 µM | [13] > 100 µM | [15] > 100 µM | [16] > 100 µM | [17] > 100 µM | [19] > 100 µM | [18] > 100 µM

CN1C(=O)C(CC=O)(C(C)(C)C)c2ccccc21 (stereo not drawn)
inactive: [1] 37.8 µM | [2] 69.7 µM | [3] 64 µM | [4] 56.4 µM | [5] > 100 µM | [6] 54.7 µM | [7] > 100 µM | [8] > 100 µM | [9] 60 µM | [10] > 100 µM | [11] 79.6 µM | [20] > 100 µM | [12] > 100 µM | [13] 30.8 µM | [15] 47.1 µM | [16] 41.8 µM | [17] > 100 µM | [19] > 100 µM | [18] 93.5 µM
